Earlier results on three compounds are cited in patent US20250375548A1, “STERILIZATION PROCESS, SYSTEM AND PRODUCT INCLUDING MOLECULAR MOBILITY ENHANCER” (TEKDRY INTERNATIONAL, INC., priority 2019, published 2025).

Structures are written as SMILES.

The conditions of data set [1]: @ 25° C.
The conditions of data set [2]: 1,800 ppm at 44° C.

As to `CCOCC` [diethyl ether], the vapor pressure in data set [1] is recorded as 520 mmHg.
As for `CC(=O)OO` [peracetic acid, reference compound], the vapor pressure in data set [1] is 14.5 mmHg.
For the compound `O=COO` [performic acid], in data set [2], the D-value result is recorded as “lower than five”. Moreover, the vapor pressure in data set [1] is given as 78 mmHg.
